Reference: patent US20200223837A1, “BENZOFURAN AMIDES AND HETEROAROMATIC ANALOGUES THEREOF FOR USE IN THERAPY” (European Molecular Biology Laboratory, priority 2017, published 2020)

Key:
[1] = test system: EGR1 promoter; test: EGR1 reporter assay (luciferase) in genomically engineered HeLa cell line; type: cell-based; settings: Homo sapiens; EGR1 reporter HeLa cells, luciferase activity after 24 hours with compound
Outline: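 HeLa cells with eGFP-P2A-luciferase knocked in by CRISPR behind the endogenous EGR1 promoter, seeded 2000/well in DMEM with 10% FCS for 24 h. Cells treated 24 h with an 11-point 1:3 series from 100 μM initial DMSO dilution. Readout: luciferase bioluminescence.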

[2] = test system: patient derived CLL samples; test: Growth inhibition of cells derived from patients with CLL; type: cell-based; settings: 27 patient derived CLL isolates; for EC50: Homo sapiens, read-out: median EC50
Experimental: HeLa, A549 and HCT116 cells were grown in high-glucose Dulbecco's Modified Eagle's Medium (DMEM, Sigma)+10% FBS+1% penicillin and streptomycin+1% L-glutamine, at 37° C. with 5% CO2 and 95% humidity. Cytotoxic screening of the ProQinase panel of 100 cell-lines was performed by ProQinase (Freiburg, Germany). Patient derived CLL isolates were prepared and screened as described by Dietrich et al. (S. Dietrich et al., J Clin Invest, 2018, 128(1), 427-445). Cell viability was determined after 48 hours using the ATP-based CellTiter Glo assay (Promega). Luminescence was measured with a Tecan Infinite F200 Microplate Reader (Tecan Group AG) and with an integration time of 0.2 seconds per well.
The response of 97 tumour samples derived from patients with CLL was investigated. All samples tumor cells were obtained from whole blood, subjected to Ficoll-Isopaque density centrifugation. CD19+B and CD3+ T cells were isolated by positive magnetic cell separation (Miltenyi Biotec). Sorted cells were checked for purity by fluorescence-activated cell sorting (FACS) with CD19/CD20 for healthy control samples and CD19/CD20/CD5 for CLL samples (BD Biosciences). Following sorting, all samples with a CD19/CD20/CD5 purity <98% were subjected to additional sorting, and the average final purity of all sorted samples was >99%. CLL samples with >[…] were not subject to purification.
Cells are incubated for three days with an eight-point three-fold titration series of the test compound from an initial concentration of 30 μM (2000 cells per well in a volume of 50 μl). Cellular viability is estimated by the addition of 25 μL of ATPlite (Perkin Elmer) with the resulting luminescence measured using an EnVision Xcite plate reader (Perkin Elmer).
In addition, the growth inhibitory response of a selection of 27 patient derived CLL isolates (S. Dietrich et al., J Clin Invest, 2018, 128(1), 427-445) against the compounds of examples 64 and 85 was evaluated using the procedure as described above.

[3] = Microsomal stability; type: in vitro ADME; settings: mouse liver microsomes, 2 μM test compound, 37° C.
Experimental: Mouse hepatic microsomes were isolated from pooled (50), perfused livers of Balb/c male mice according to the standard protocol (Hill, J. R. in Current Protocols in Pharmacology 7.8.1-7.8.11, Wiley Interscience, 2003). The batch of microsomes was tested for quality control using Imipramine, Propranolol and Verapamil as reference compounds. Microsomal incubations were carried out in 96-well plates in 5 aliquots of 40 μL each (one for each time point). Liver microsomal incubation medium contained PBS (100 mM, pH 7.4), MgCl2 (3.3 mM), NADPH (3 mM), glucose-6-phosphate (5.3 mM), glucose-6-phosphate dehydrogenase (0.67 units/ml) with 0.42 mg of liver microsomal protein per ml. Control incubations were performed replacing the NADPH-cofactor system with PBS.
Test compound (2 μM, final solvent concentration 1.6%) is incubated with microsomes at 37° C., shaking at 100 rpm. Incubations are performed in duplicates. Five time points over 40 minutes are analyzed. The reactions are stopped by adding 12 volumes of 90% acetonitrile-water to incubation aliquots, followed by protein sedimentation by centrifuging at 5500 rpm for 3 minutes. Supernatants are analyzed using the HPLC system coupled with tandem mass spectrometer. The elimination constant (kel), half-life (t½) and intrinsic clearance (Clint) is determined in plot of In(AUC) versus time, using linear regression analysis.

[4] = molecular target: T1, pirin (Homo sapiens, UniProt O00625); test: Nano differential scanning fluorimetry (NanoDSF), thermal melting of pirin; settings: 10 μM pirin in PBS, 20 μM test compound
T1 sequence (O00625 1-290): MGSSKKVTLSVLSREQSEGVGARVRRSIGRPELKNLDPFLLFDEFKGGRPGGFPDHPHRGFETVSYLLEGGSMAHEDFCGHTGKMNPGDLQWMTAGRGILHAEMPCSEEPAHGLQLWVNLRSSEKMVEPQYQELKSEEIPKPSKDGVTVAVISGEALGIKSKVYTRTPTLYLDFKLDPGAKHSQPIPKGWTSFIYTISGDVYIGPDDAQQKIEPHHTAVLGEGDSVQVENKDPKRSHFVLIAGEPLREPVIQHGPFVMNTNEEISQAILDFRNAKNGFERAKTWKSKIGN
From the text: NanoDSF is an advanced Differential Scanning Fluorimetry method for measuring protein stability using intrinsic tryptophan or tyrosine fluorescence. The fluorescence of the tryptophans and tyrosines in a protein is strongly dependent on their close surroundings. Changes in protein structure typically affect both the intensity and the emission wavelength especially of tryptophan fluorescence. By measuring fluorescence intensity at 330 nm and 350 nm, the change in fluorescence intensity and the shift of the fluorescence maximum upon unfolding can be used to detect thermal melting of the protein. Proteins are stabilized when associated with ligands and show a shift in their melting temperatures. NanoDSF has the advantages of being label free and observing the protein in solution.
A 10 μM solution of pirin in phosphate buffered saline, with or without 20 μM test compound, is subject to thermal denaturation under fluorescence monitoring using a Prometheus NT.48 instrument of NanoTemper Technologies. Unliganded pirin has a complex biphasic melting curve. […] If the test compound is a ligand to pirin, it adopts a single thermal transition some 10° C. above that of apopirin.

SMILES | EC50 [1] [µM] | growth inhibitory response [2] | EC50 [2] [µM] | microsomal stability [3] [min] | increase in the Tm of melting [4]
O=C(Cc1coc2c(Cl)c(Cl)ccc12)Nc1ncc(C(F)(F)F)s1 [Example 85, 2-(6,7-Dichlorobenzofuran-3-yl)-N-[5-(trifluoromethyl)thiazol-2-yl]acetamide] | 0.01 to 10 | active against all isolates | 1.67 | 113 | approximately 11 °C
Cc1cnc(NC(=O)Cc2coc3cc4c(cc23)CCC4)s1 [Example 64, 2-(6,7-Dihydro-5H-cyclopenta[f]benzofuran-3-yl)-N-(5-methylthiazol-2-yl)acetamide] | 0.01 to 10 | active against all isolates | 6 | 10 | approximately 11 °C
